Measured values taken from US20100035848A1, “THERAPY FOR DISORDERS OF THE PROXIMAL DIGESTIVE TRACT” (priority 2008, published 2010).
Several values for one entry are separate records, joined by “and”; a condition that tells them apart may be missing. Equal entries are not always repeated.

What was measured:
[1] = tested on: diclofenac-induced gastric damage; assay: Acute diclofenac-induced gastric toxicity in rats: gastric damage score; format: in vivo, rat; conditions: Group C: GL1001 90 mg/kg oral gavage 30 min before diclofenac 50 mg/kg oral, 3 h; vehicle-diclofenac Group B 17.80 ± 5.08; p<0.02
Description: (§1) Male Wistar rats were deprived of food but not water for 16 hours prior to oral administration of GL1001 90 mg/kg, incubated for 30 minutes and then given oral diclofenac 50 mg/kg. Each group consisted of 6 rats. As a negative control, one group received vehicle pretreatment, and then received vehicle instead of diclofenac. A positive control group received PGE2 100 μg/kg orally, 30 minutes prior to administration of diclofenac. All treatments were administered by oral gavage.
(§2) Three hours after diclofenac treatment, all animals were sacrificed and stomachs were removed and imaged to determine the severity of gastric damage. Additionally, stomach tissue samples were taken to assess disease activity and pharmacodynamic effects. Gastric damage scores were determined from photographic images (Ma & Wallace (2003) Am. J. Physiol. Gastrointest. Liver Physiol. 279; 341-346). Removed stomachs were opened along the greater curvature, pinned out on a wax block, and photographed along a 25 mm ruler reference with a digital 35 mm camera. The lesion area was then determined using enlarged images and computer software (www.scioncorp.co/pages/scion_image_windows.htm) that allows superimposed drawing of the perimeter of a wound and calculation of the area based on the ruler reference. Stomach samples (excluding forestomach) were used for measurements of PGE2 concentration, MPO activity and ACE2 activity. PRE2 determinations are used in this study as a hiomarker of diclofenac effect since its mechanism of action involves inhibition of cyclooxygenase (COX-2 and COX-1) enzymes which in turn results in inhibition of PGE2 synthesis. Concentration of PGE2 from stomach tissue samples was performed as described by Souza et al. (2003), supra, and quantification was obtained by LC-MS. MTO, an enzyme found in abundance in granulocytes, is used as a biochemical marker of tissue inflammation. When tissues undergo inflammatory processes, granulocytes are recruited to the site of inflammation and infiltrate the affected tissue giving rise to increase MPO activity (Souza et al. (2003), supra). Last, the extent of inhibition of ACE2 activity was determined to establish whether GL1001 was effective in inhibiting its ACE2 target in stomach tissues. The ACE2 activity assay is similar to the method of Vickers et al. (2002) J. Biol. Chem. 277:14838-14843, wherein purified recombinant ACE2 (100 pM) and a quenched fluorescent substrate (100-150 μM APK (7-methoxycoumarin-4-yl)acetyl-Ala-Pro-Lys (2,4-dinitrophenyl)) are used in end-point fluorescence reactions (excitation 320 nm, emission 405 nm). For stomach ACE2 measurements, tissues were homogenized in the presence of a general protease inhibitor (PMSF) and specific ACE inhibitors. […]
(§3) Data are expressed as means with standard errors. […]

[2] = tested on: gastric PGE2 synthesis; assay: Acute indomethacin-induced gastric toxicity in rats: gastric PGE2 synthesis; format: in vivo, rat; conditions: indomethacin 20 mg/kg p.o.
Description: A study was conducted to determine whether GL1001 would inhibit acute NSAID (indomethacin)-induced gastric toxicity in a rat model (Wallace et al. (1998) Gastroenterol. 115:101-109). Several modes of treatment with GL1001 or vehicle were employed, which included administration via drinking water, oral administration and subcutaneous administration as shown in Table 4. Irrespective of the route of drug or vehicle administration, male Wistar rats were deprived of food for 16 h prior to oral administration of 20 mg/kg indomethacin (Sigma) or vehicle (5% w/v sodium bicarbonate; 1 ml/kg). Three hours later the rats were sacrificed and the severity of gastric damage was blindly scored. This involved measurement of the lengths (in mm) of all hemorrhagic erosions and summing these to give a “gastric damage score” for each stomach. Samples of the stomach were taken for measurement of prostaglandin E2 (PGE2) synthesis as described by Wallace et al. (1998), supra, and myeloperoxidase activity as described by Souza et al. (2003) Am. J. Physiol. 285:[…]-61. Myeloperoxidase is an enzyme found in all cells of mycloid origin, but particularly enriched within neutrophils. It is therefore used as a biochemical marker of granulocyte infiltration into tissue. Each group consisted of 6 rats. As a negative control, one group received vehicle pretreatments (in the drinking water and by oral gavage) and then received vehicle instead of indomethacin. […] [table] In the experiments where GL1001 (or vehicle) was added to drinking water, the rats were provided with the modified drinking water for 2 days prior to administration of indomethacin (or vehicle). This included the period when the rats were deprived of food. GL1001 was prepared in 0.1M citrate buffer before being added to the drinking water. Based on average water consumption by rats, this was aimed at providing a daily dose of GL1100 of 1200 mg/kg (water consumption was monitored for several days prior to initiation of the study). Oral or subcutaneous administration of GL1001 (or vehicle) was performed 30 minutes prior to administration of indomethacin. Data are expressed as mean±SEM. When two groups of data were compared, a Student's t-test was used. When more than two groups of data were compared, a one-way analysis of variance followed by the Newman-Keuls test was used. An associated probability of less than 5% was considered statistically significant.

[3] = tested on: gastric PGE2; assay: Acute diclofenac-induced gastric toxicity in rats: gastric PGE2 concentration; format: in vivo, rat; conditions: Group C: GL1001 oral before diclofenac 50 mg/kg; vehicle/vehicle Group A 43.22 ± 12.13
Description: as §1
as §2, with “PRE2 determinations are used in this study as a hiomarker of diclofenac effect since its mechanism of action involves inhibition of cyclooxygenase (COX-2 and COX-1) enzymes which in turn results in inhibition of PGE2 synthesis.” left out, “MTO, an enzyme found in abundance in granulocytes, is used as a biochemical marker of tissue inflammation. When tissues undergo inflammatory processes, granulocytes are recruited to the site of inflammation and infiltrate the affected tissue giving rise to increase MPO activity (Souza et al. (2003), supra).” left out, “nm).” for “nm). For stomach ACE2 measurements, tissues were homogenized in the presence of a general protease inhibitor (PMSF) and specific ACE inhibitors.”
as §3

[4] = molecular target: T1, ACE2 (Rattus norvegicus, UniProt Q5EGZ1); assay: Stomach tissue homogenates spiked with excess GL1001, ACE2 fluorescence assay; format: biochemical
T1 construct: from tissue; host or cells: rat stomach (excluding forestomach) homogenate
Description: Three hours after diclofenac treatment, all animals were sacrificed and stomachs were removed and imaged to determine the severity of gastric damage. Additionally, stomach tissue samples were taken to assess disease activity and pharmacodynamic effects. Gastric damage scores were determined from photographic images (Ma & Wallace (2003) Am. J. Physiol. Gastrointest. Liver Physiol. 279; 341-346). Removed stomachs were opened along the greater curvature, pinned out on a wax block, and photographed along a 25 mm ruler reference with a digital 35 mm camera. The lesion area was then determined using enlarged images and computer software (www.scioncorp.co/pages/scion_image_windows.htm) that allows superimposed drawing of the perimeter of a wound and calculation of the area based on the ruler reference. Stomach samples (excluding forestomach) were used for measurements of PGE2 concentration, MPO activity and ACE2 activity. […] Concentration of PGE2 from stomach tissue samples was performed as described by Souza et al. (2003), supra, and quantification was obtained by LC-MS. […] Last, the extent of inhibition of ACE2 activity was determined to establish whether GL1001 was effective in inhibiting its ACE2 target in stomach tissues. […]

T1 sequence (Q5EGZ1 18-805): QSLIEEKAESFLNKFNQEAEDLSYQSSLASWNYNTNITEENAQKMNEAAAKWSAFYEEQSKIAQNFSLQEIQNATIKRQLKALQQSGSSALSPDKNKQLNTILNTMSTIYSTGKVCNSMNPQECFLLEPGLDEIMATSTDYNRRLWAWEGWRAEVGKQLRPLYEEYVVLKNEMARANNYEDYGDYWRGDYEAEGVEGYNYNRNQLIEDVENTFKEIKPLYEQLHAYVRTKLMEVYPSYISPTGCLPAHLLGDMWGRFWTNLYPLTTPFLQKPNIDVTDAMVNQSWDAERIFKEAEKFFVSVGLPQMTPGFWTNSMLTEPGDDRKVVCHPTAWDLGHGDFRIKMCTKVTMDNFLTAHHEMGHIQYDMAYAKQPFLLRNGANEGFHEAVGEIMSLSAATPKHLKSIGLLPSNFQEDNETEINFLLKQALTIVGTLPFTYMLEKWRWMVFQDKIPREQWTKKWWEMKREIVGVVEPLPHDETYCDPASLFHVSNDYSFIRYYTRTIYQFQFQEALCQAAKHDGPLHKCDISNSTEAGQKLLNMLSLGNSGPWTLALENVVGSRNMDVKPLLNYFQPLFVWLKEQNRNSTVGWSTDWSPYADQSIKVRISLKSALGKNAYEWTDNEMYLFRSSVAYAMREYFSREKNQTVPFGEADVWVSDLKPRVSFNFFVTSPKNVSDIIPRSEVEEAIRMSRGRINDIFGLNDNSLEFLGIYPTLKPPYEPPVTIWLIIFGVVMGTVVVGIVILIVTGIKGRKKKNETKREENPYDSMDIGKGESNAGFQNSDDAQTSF

- further inhibition of ACE2 on spiking ([4]; tissue samples of Group C (dosed in vivo with GL1001) spiked with excess GL1001): no further inhibition
- decrease in the fluorescence signal (ACE2 specific activity) ([4]; tissue samples of Groups A and B spiked with vast excess of GL1001 (>IC90)): 40-50%
SMILES: CC(C)C[C@H](N[C@@H](Cc1cncn1Cc1cc(Cl)cc(Cl)c1)C(=O)O)C(=O)O [GL1001, (S,S)-2-[1-carboxy-2-[3-(3,5-dichlorobenzyl)-3H-imidazol-4-yl]-ethylamino]-4-methylpentanoic acid]
- Gastric damage score [1]: 2.6 and 2.63 ± 0.87
- Gastric PGE2 synthesis ([2]; Group A: GL1001 in drinking water, vehicle Group B 3.83 ± 0.98): 5.31 ± 1.54 ng/mg
- Gastric PGE2 synthesis ([2]; Group C: GL1001 p.o. and in drinking water, vehicle Group D 3.07 ± 0.55): 2.37 ± 0.51 ng/mg
- Gastric PGE2 synthesis ([2]; Group F: GL1001 s.c. and in drinking water, vehicle Group G 3.60 ± 0.32): 3.57 ± 0.59 ng/mg
- Gastric PGE2 synthesis ([2]; Group H: GL1001 p.o., vehicle Group I 6.08 ± 1.00): 4.44 ± 0.40 ng/mg
- Gastric PGE2 concentration [3]: 0 pg/mg
